Source: patent US20050020638A1, “Method of stabilizing lansoprazole” (priority 2003, published 2005)
Where two headings read alike, the source gives them in different places.

Experiments:
[1] = Stability of stabilized vs. non-stabilized lansoprazole on storage (HPLC impurities and color); type: physicochemical; settings: 40 °C, 75% humidity
Procedure: Chromatographic purity method of lansoprazole is detailed in the monograph in USP Forum Vol. 26 (5) [September-October 2000]. HPLC condition: Column C18 • Mobile phase: Gradient of triethylamine in water with acetonitrile • Flow: 0.8 ml/min • Detection: 285 nm Karl Fisher method for water determination is the USP method, 921. Ia, with the solvent: pyridine and ethylene glycol 9:1 as detailed in USP Forum Vol. 26 (5) [September-October 2000].

[2] = cited from earlier work
[3] = 1 month, lansoprazole of Example 2
[4] = 3 months, 'solvent free' lansoprazole of Example 3

SMILES	LNP-SO2 (sulfone derivative) after storage [1, 3] [%]	LNPS (sulfide derivative) after storage [1, 3] [%]	Total impurities after storage [1, 3] [%]	Color after storage [1, 4]	LNP-SO2 (sulfone derivative) after storage [1, 4] [%]	LNPS (sulfide derivative) after storage [1, 4] [%]	Total impurities after storage [1, 4] [%]	Color after storage [1, 3]	Color after storage ([2]; 4 months at 40 °C and 75% room humidity)	Color after storage ([2]; 4 months at 40 °C, absence of humidity)
Cc1c(OCC(F)(F)F)ccnc1C[S+]([O-])c1nc2ccccc2[nH]1 (stereo not shown) [Lansoprazole not stabilized with ammonia, 2-[[3-methyl-4-(2,2,2-trifluoroethoxy)-2-pyridyl]methyl]sulfinyl-1H benzimidazole]	0.04	0.03	0.15	Brownish	0.04	0.06	0.31			
Cc1c(OCC(F)(F)F)ccnc1C[S+]([O-])c1nc2ccccc2[nH]1 (stereo not shown) [Lansoprazole stabilized with ammonia, 2-[[3-methyl-4-(2,2,2-trifluoroethoxy)-2-pyridyl]methyl]sulfinyl-1H benzimidazole]	0.03		0.05	white	0.02	0.03	0.08	white		
Cc1c(OCC(F)(F)F)ccnc1C[S+]([O-])c1nc2ccccc2[nH]1 (stereo not shown) [lansoprazole, (2-[[[3-methyl-4-(2,2,2-trifluoro-ethoxy)-2-pyridinyl]methyl]sulfinyl]-1H-benzimidazole)]									pale brown	pale yellowish brown
